Laboratory results from ChEMBL document CHEMBL1132097, “Fluorobenzamidrazone thrombin inhibitors: influence of fluorine on enhancing oral absorption” (Bioorg Med Chem Lett, 1999).

Key:
[1] = Absorption behavior was judged by the peak blood concentration determined after oral dose of 30 mg/kg in rats.; format: ADME, organism-based; set-up: dose 30 mg/kg, route oral; details: rat
Prothrombin [2] = molecular target: T1, Prothrombin (Homo sapiens, UniProt P00734); test: Inhibitory constant against human thrombin was determined in vitro
[3] = Absorption behavior was judged by the area under the curve, determined after oral dose of 30 mg/kg in rats.; format: ADME, organism-based; set-up: dose 30 mg/kg, route oral; details: rat, in vivo
Serine protease 1 [4] = molecular target: T2, Serine protease 1 (Bos taurus, UniProt P00760); test: Inhibitory constant against bovine trypsin was determined in vitro
T2 sequence (P00760 whole entry): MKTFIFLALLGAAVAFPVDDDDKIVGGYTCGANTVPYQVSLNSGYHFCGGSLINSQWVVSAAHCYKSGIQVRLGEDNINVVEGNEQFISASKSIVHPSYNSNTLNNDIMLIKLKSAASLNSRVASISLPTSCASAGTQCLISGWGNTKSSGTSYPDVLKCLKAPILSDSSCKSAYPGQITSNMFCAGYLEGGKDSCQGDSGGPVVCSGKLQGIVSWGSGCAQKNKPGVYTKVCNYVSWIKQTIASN

Serine protease 1 [5] = molecular target: T2, Serine protease 1; test: Inhibitory constant against bovine trypsin was determined in vitro.
Prothrombin [6] = molecular target: T1, Prothrombin; test: Inhibitory constant against human thrombin was determined in vitro.

Compound | Cmax [1] [nM] | Ki (Prothrombin [2]) [nM] | AUC [3] [µM·h] | Ki (Serine protease 1 [4]) [nM] | Ki (Serine protease 1 [5]) [nM] | Ki (Prothrombin [6]) [nM]
CCCc1ccc(S(=O)(=O)N[C@@H](Cc2ccc(C(N)=NN)cc2)C(=O)N(C)C2CCCC2)cc1 | 1170 | 0.2 | 2.23 | 3500 | – | –
CCCc1ccc(S(=O)(=O)N[C@@H](Cc2ccc(C(=N)NN)c(F)c2)C(=O)N(C)C2CCCC2)cc1 | 2780 | – | 4.17 | – | 22000 | 1.8
COc1ccc2cc(S(=O)(=O)N[C@@H](Cc3ccc(C(N)=NN)cc3)C(=O)N(C)C3CCCC3)ccc2c1 | 1130 | – | 2.62 | – | 9200 | 0.06
CN(C(=O)[C@H](Cc1ccc(C(N)=NN)c(F)c1)NS(=O)(=O)c1ccc2c(c1)CCCC2)C1CCCC1 | 1340 | – | 1.63 | – | 25000 | 0.9
CN(C(=O)[C@H](Cc1ccc(C(=N)NN)cc1)NS(=O)(=O)c1ccc2ccccc2c1)C1CCCC1 | 1610 | – | 2.33 | – | 33000 | 0.4
CN(C(=O)[C@H](Cc1ccc(C(N)=NN)cc1)NS(=O)(=O)c1ccc2c(c1)CCCC2)C1CCCC1 | 360 | – | 0.817 | – | 4600 | 0.1
CN(C(=O)[C@H](Cc1ccc(C(=N)NN)cc1F)NS(=O)(=O)c1ccc2ccccc2c1)C1CCCC1 | 1630 | – | 1.83 | – | 11000 | 2
CN(C(=O)[C@H](Cc1ccc(C(N)=NN)c(F)c1)NS(=O)(=O)c1ccc2ccccc2c1)C1CCCC1 | 4130 | – | 6.67 | – | 25000 | 5.5

Second part, the compound after the results:

Cmax [1] [nM] | Ki (Prothrombin [2]) [nM] | AUC [3] [µM·h] | Ki (Serine protease 1 [4]) [nM] | Ki (Serine protease 1 [5]) [nM] | Ki (Prothrombin [6]) [nM] | Compound
1350 | – | 2.68 | – | 4000 | 0.7 | CCCc1ccc(S(=O)(=O)N[C@@H](Cc2ccc(C(N)=NN)cc2F)C(=O)N(C)C2CCCC2)cc1
2410 | – | 3.28 | – | 2000 | 0.2 | COc1ccc2cc(S(=O)(=O)N[C@@H](Cc3ccc(C(N)=NN)cc3F)C(=O)N(C)C3CCCC3)ccc2c1
1030 | – | 1.37 | – | 3000 | 0.5 | CN(C(=O)[C@H](Cc1ccc(C(=N)NN)cc1F)NS(=O)(=O)c1ccc2c(c1)CCCC2)C1CCCC1
